Among the test systems are MOLT-4 leukemia; SNB-19 CNS; A498 renal; IGROV1 ovarian; TK-10 renal; SK-OV-3 ovarian; M14 melanoma; RPMI-8226 leukemia; UACC-62 melanoma; MCF7 breast.
Common to all, as to assay: inhibition of tumour cell growth, NCI panel, 48 h

Each structure is given as a SMILES string.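 1) Cells in 96-well plates. 2) Compound, 48 h, 5 concentrations. 3) Linear interpolation between surrounding doses. 4) Unreached endpoint = highest concentration. GI50 = concentration required for 50% inhibition of growth. TGI denotes the concentration required for complete inhibition of growth.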 Bounds are passed on as bounds.

For `ClC(Cl)c1nc(-c2cccnc2)n2nc(-c3ccccc3)cc2n1`, the GI50 in the experiment with MOLT-4 leukemia was 984 nM; in the experiment with SNB-19 CNS, 1.88 µM; with A498 renal it was 29.9 nM; in the experiment on IGROV1 ovarian, 1630 nM; with TK-10 renal, 1840 nM; in the experiment with SK-OV-3 ovarian, 1780 nM. In addition, the GI50 in the experiment on M14 melanoma was 1140 nM. The TGI in the experiment on MOLT-4 leukemia was above 100 µM; with SNB-19 CNS, 5.89 µM; in the experiment with A498 renal it was 2.17 µM; in the experiment with IGROV1 ovarian, 5.23 µM; in the experiment on TK-10 renal it was 6.49 µM; with SK-OV-3 ovarian, 5.02 µM. The same compound showed a TGI in the experiment on M14 melanoma of 2.79 µM.

Turning to `COc1cccc(C(=O)N2CCc3ccccc32)c1OC`, the TGI is above 100 µM with RPMI-8226 leukemia; 78.7 µM in the experiment on MOLT-4 leukemia; above 100 µM with UACC-62 melanoma; above 100 µM in the experiment on SNB-19 CNS; above 100 µM with IGROV1 ovarian; above 100 µM in the experiment on TK-10 renal. Moreover, the TGI with SK-OV-3 ovarian and with M14 melanoma was above 100 µM throughout.

As for `Cc1c(C(=O)c2ccccc2C(=O)O)c2ccccc2n1C`, the TGI in the experiment with RPMI-8226 leukemia, with MOLT-4 leukemia, in the experiment on UACC-62 melanoma, in the experiment with A498 renal, in the experiment with IGROV1 ovarian and in the experiment on TK-10 renal was above 100 µM throughout. Further, the TGI with SK-OV-3 ovarian and with M14 melanoma was above 100 µM in each case.

Turning to `COc1ccc(C(N)=O)cc1N=NN(C)C`, the TGI with RPMI-8226 leukemia, in the experiment with MOLT-4 leukemia, in the experiment with UACC-62 melanoma, in the experiment on SNB-19 CNS, in the experiment on A498 renal and in the experiment with IGROV1 ovarian was above 100 µM in each case. Besides, the TGI with TK-10 renal, with SK-OV-3 ovarian and in the experiment on M14 melanoma was above 100 µM each time.

As to `CC(=O)O[C@H]1CC[C@@]2(C)C(=CC[C@H]3C4=CC=C(C(C)=O)[C@@]4(C)CCC32)C1` (some centres undefined), the TGI is above 100 µM in the experiment with RPMI-8226 leukemia; above 100 µM in the experiment on MOLT-4 leukemia; 46.8 µM in the experiment on UACC-62 melanoma; above 100 µM with SNB-19 CNS; above 100 µM in the experiment with A498 renal; above 100 µM in the experiment with IGROV1 ovarian. For the same compound, the TGI in the experiment with TK-10 renal, in the experiment with SK-OV-3 ovarian and in the experiment with M14 melanoma was above 100 µM each time.

As to `COC1OC(CO)C(O)C(O)C1Br` (centres undefined), the TGI in the experiment on RPMI-8226 leukemia, in the experiment with MOLT-4 leukemia, in the experiment on UACC-62 melanoma, in the experiment with SNB-19 CNS, in the experiment with A498 renal and in the experiment with IGROV1 ovarian was above 100 µM in each case. For the same compound, the TGI in the experiment on TK-10 renal and in the experiment on M14 melanoma was above 100 µM in each case.

With `COc1cc2noc(-c3ccccc3)c2cc1OC`, the TGI with RPMI-8226 leukemia is 56.7 µM; with MOLT-4 leukemia it was above 100 µM; in the experiment on UACC-62 melanoma, above 100 µM; with SNB-19 CNS, above 100 µM; in the experiment with A498 renal, 83.1 µM; in the experiment with IGROV1 ovarian it was above 100 µM. Besides, the TGI in the experiment with TK-10 renal, in the experiment with SK-OV-3 ovarian and in the experiment on M14 melanoma was above 100 µM throughout.

As to `CC(=O)OCCOCNC(=S)N/N=C(\C)c1cnc2ccccc2n1`, the TGI was above 100 µM in the experiment on RPMI-8226 leukemia; above 100 µM in the experiment on MOLT-4 leukemia; 39.7 µM in the experiment with UACC-62 melanoma; above 100 µM in the experiment with SNB-19 CNS; above 100 µM in the experiment on A498 renal; above 100 µM with IGROV1 ovarian. Besides, the TGI in the experiment on TK-10 renal, with SK-OV-3 ovarian and in the experiment on M14 melanoma was above 100 µM in each case.

With `COc1c(C(=O)O)oc2c(OC)cccc12`, the TGI in the experiment on RPMI-8226 leukemia, with MOLT-4 leukemia, in the experiment on UACC-62 melanoma, in the experiment on SNB-19 CNS, in the experiment on A498 renal and with IGROV1 ovarian was above 100 µM in each case. Further, the TGI with TK-10 renal, in the experiment with SK-OV-3 ovarian and with M14 melanoma was above 100 µM throughout.

For `Cn1c(=O)nc2n(-c3cccc(F)c3)c3ccccc3nc-2c1=O`, the TGI in the experiment with RPMI-8226 leukemia is 72.6 µM; with MOLT-4 leukemia, 54.1 µM; with UACC-62 melanoma it was 13 µM; with SNB-19 CNS, 48.6 µM; with A498 renal it was above 100 µM; with IGROV1 ovarian, 62.5 µM. Besides, the TGI in the experiment on TK-10 renal is above 100 µM; in the experiment with SK-OV-3 ovarian, above 100 µM; in the experiment with M14 melanoma, 67.1 µM.

Consider `CCOC(=O)c1[nH]c(-c2ccc(Cl)cc2)cc1-c1cccnc1`, for which the GI50 in the experiment with MOLT-4 leukemia was 683 nM; in the experiment with UACC-62 melanoma it was 843 nM; in the experiment with MCF7 breast, 453 nM; in the experiment on SNB-19 CNS it was 8.33 µM; in the experiment on A498 renal, 811 nM; in the experiment on IGROV1 ovarian, 1370 nM. For the same compound, the GI50 with TK-10 renal is 972 nM; in the experiment with SK-OV-3 ovarian it was 1050 nM. Further, the TGI in the experiment with MOLT-4 leukemia was above 100 µM; in the experiment with UACC-62 melanoma it was above 100 µM; in the experiment on MCF7 breast, above 100 µM; with SNB-19 CNS, above 100 µM; in the experiment on A498 renal it was 9.37 µM; in the experiment on IGROV1 ovarian, above 100 µM. The TGI with TK-10 renal and in the experiment on SK-OV-3 ovarian was above 100 µM throughout.

Turning to `CN(C)C(N)=NC#N`, the TGI in the experiment on RPMI-8226 leukemia, with MOLT-4 leukemia, in the experiment on UACC-62 melanoma, in the experiment with SNB-19 CNS, with A498 renal and in the experiment on IGROV1 ovarian was above 100 µM each time. For the same compound, the TGI with TK-10 renal, in the experiment on SK-OV-3 ovarian and in the experiment on M14 melanoma was above 100 µM in each case.

As to `COc1cccc(NC(=O)CC(=O)N2N=C(N(CCC#N)c3ccccc3C)CC2c2ccccc2)c1` (centres undefined), the TGI in the experiment on RPMI-8226 leukemia, in the experiment with MOLT-4 leukemia, in the experiment with UACC-62 melanoma, with SNB-19 CNS, in the experiment with IGROV1 ovarian and with SK-OV-3 ovarian was above 100 µM in each case. The compound also yielded a TGI with M14 melanoma above 100 µM.

The record behind these values is PubChem BioAssay (NCI).
